Data reported in patent US20250090558A1, “APPLICATION OF M[…] PROMOTING BONE FORMATION AND PREVENTING-TREATING OSTEOPOROSIS” (The First Affiliated Hospital of Zhejiang Chinese Medical …, priority 2023, published 2025).

Columns and labels:
primary osteoblasts [1] = experiment: cell counting kit-8 (CCK-8) assay, viability of primary osteoblasts; type: cell-based, mouse
[2] = tested on: livers, hearts, kidneys, and spleens of OVX model mice; experiment: biosafety evaluation, HE staining of organs in OVX model mice; type: in vivo, mouse; settings: low-dose and high-dose, 8 weeks of intervention
Description: The livers, hearts, kidneys, and spleens of the mice in the OVX model post-intervention with miltefosine for 8 weeks are collected, and the tissue morphology of these organs is observed through hematoxylin and eosin (HE) staining.

[3] = tested on: mouse model with femoral distal bone defect; experiment: bone defect repair in mouse model with femoral distal bone defect; type: in vivo
osteoblasts = experiment: alkaline phosphatase staining, osteogenic differentiation of osteoblasts; type: cell-based, mouse; settings: in vitro; 2.5 μM, 5.0 μM, 10 μM
OVX model mice = experiment: ovariectomy (OVX) model mouse, estrogen-deficient osteoporosis; type: in vivo; settings: for number of TRAP-positive cells: distal femur sections
[4] = tested on: Ppm1a knockout (Ppm1a−/−) mice with bone defect; type: in vivo, mouse
primary osteoblasts [5] = experiment: RT-qPCR of osteogenic genes Sp7, Bglap, Alpl in primary osteoblasts; settings: RT-PCR
Description: After euthanizing 3-5-day-old mouse with CO2, the euthanized mouse is soaked in 70% alcohol for disinfection for 15 minutes. The disinfected mouse is then carefully skinned from a top of the skull, and the skull tissue blocks are placed in an a-modified eagle medium (α-MEM) digestion culture medium containing 1 mg/mL collagenase-A and 1% penicillin/streptomycin. The skull tissue blocks are digested at 37° C. for 6 hours, with the cell tissue blocks being pipetted and blown every hour. After the digestion of the tissue blocks is complete to obtain a mixture, the mixture is filtered through a 70-μm cell strainer, centrifuged at 1000 revolutions per minute (rpm) for 5 minutes, and then resuspended in α-MEM culture medium to obtain mixed cells. The mixed cells are inoculated in a well plate to obtain osteoblasts, and the osteoblasts are cultured in complete α-MEM medium containing 10% fetal bovine serum. When a cell adhesion convergence degree of the osteoblasts reaches 60-70%, the osteoblasts are induced for osteogenic differentiation with an osteogenic culture medium containing ascorbic acid (50 g/mL) and β-glycerophosphate (10 millimoles per liter abbreviated as mM) for 7 days before the cells are collected for the next step of the experiment.
1.1.7 Extraction of Messenger Ribonucleic Acid (mRNA) of Cells and Detection of Reverse Transcription Quantitative Polymerase Chain Reaction (RT-qPCR)
TRIzol reagent (i.e., TRI reagent®) is used to harvest and extract total RNA from the osteoblast cultures. The mRNA is then reverse transcribed into complementary deoxyribonucleic acid (DNA) using the TaqMan reverse transcription kit (Biomake). After that, a real-time quantitative polymerase chain reaction (RT-qPCR) is conducted with the SYBR Premix Ex Taq™ II.

[6] = CT analysis, one week after operation
[7] = 8 weeks post-OVX, vs control group

CCCCCCCCCCCCCCCCOP([O])(=O)OCC[N+](C)(C)C (stereo not drawn) [miltefosine, hexadecylphosphocholine]
effect on the viability of the primary osteoblasts (primary osteoblasts [1]; 0.5 μM to 20 μM in vitro): no significant effect | cell death of the primary osteoblasts (primary osteoblasts [1]; 50 μM): approximately 50% | tissue morphology of livers, hearts, kidneys, and spleens (HE staining) [2]: no obvious lesions or pathological changes | BMD in the bone defect repair area [3, 6]: increase | BV/TV in the bone defect repair area [3, 6]: increase | trabecular number (Tb.N) in the bone defect repair area [3, 6]: increase | expression level of osteocalcin (OCN) in the bone defect repair area ([3]; immunohistochemistry, vs control group): significantly increased | bone repair (μ-CT scans of femur) ([3]; one week after model creation): effectively accelerate bone repair | area of new bone in the bone defect area (SO/FG staining) ([3]; vs control (vehicle) group, one week after operation): significantly larger | osteogenic differentiation capacity of osteoblasts (alkaline phosphatase staining) (osteoblasts): significantly enhance | BMD at the distal femur (OVX model mice; 8 weeks post-OVX): significantly increase | Conn.Dn (OVX model mice; 8 weeks post-OVX): improve | SMI of the bone tissue (OVX model mice; 8 weeks post-OVX): improve | bone loss at the distal femur (histomorphometric analysis, ABH/OG, trabecular bone area fraction) (OVX model mice; 8 weeks post-OVX): reduce bone loss | number of osteoblasts on the trabecular bone surface (OVX model mice; 8 weeks post-OVX): increase | BV/TV of trabecular bone (OVX model mice; [7]): significantly increased | Tb.N (OVX model mice; [7]): significantly increased | Tb.Sp (OVX model mice; [7]): markedly reduced | Tb.Th (OVX model mice; [7]): significantly increased | expression level of mature osteoclast marker cathepsin K (CTSK) (OVX model mice; control group vs treated groups): no significant difference | bone formation by ALP immunohistochemical staining (OVX model mice; distal femur, 8 weeks post-OVX): significantly promote the bone formation | bone formation by immunofluorescence staining for OCN (OVX model mice; distal femur, 8 weeks post-OVX): significantly promote the bone formation | formation of adipocytes (Fabp4 immunohistochemical staining) (OVX model mice; distal femur, 8 weeks post-OVX): no obvious effect | number of TRAP-positive cells (OVX model mice; high-dose): slightly reduces | bone loss at the distal metaphysis of the femur (micro-CT) (OVX model mice; low-dose and high-dose groups, 8 weeks post-OVX): significantly less | number of TRAP-positive cells (OVX model mice; low-dose): does not affect | osteogenic effects in bone defect repair (Micro-CT) [4]: could not exert the above osteogenic effects | expression of osteogenic gene Alpl (mRNA) (primary osteoblasts [5]): upregulate | expression of osteogenic gene Bglap (mRNA) (primary osteoblasts [5]): upregulate | expression of osteogenic gene Sp7 (mRNA) (primary osteoblasts [5]): upregulate
